# Source: patent publication US9598423B2 (BRISTOL-MYERS SQUIBB COMPANY, priority 2013, dated 2017)
# Tests used:
# CK1δ = CK1δ (Homo sapiens (Human), UniProt P48730); assay: CK1δ kinase assay (Caliper LABCHIP electrophoretic separation of fluoresceinated peptide substrate and product); type: biochemical; conditions: 200 pM CK1δ, 50 μM ATP, 1.5 μM peptide substrate, 22 hours at room temperature; read-out: CK1δ (IC50)
# Method in brief: (§1)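 Eleven-concentration compound series in kinase reactions run for 22 hours at room temperature. Terminated with EDTA, with product conversion read by electrophoretic separation. Non-linear regression gave IC50.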
# CK1ε = CK1ε (Homo sapiens (Human), UniProt P49674); assay: CK1ε kinase assay (Caliper LABCHIP electrophoretic separation of fluoresceinated peptide substrate and product); type: biochemical; conditions: 200 pM CK1ε, 50 μM ATP, 1.5 μM peptide substrate, 22 hours at room temperature; read-out: CK1ε (IC50)
# CK1ε, sequence (P49674 whole entry): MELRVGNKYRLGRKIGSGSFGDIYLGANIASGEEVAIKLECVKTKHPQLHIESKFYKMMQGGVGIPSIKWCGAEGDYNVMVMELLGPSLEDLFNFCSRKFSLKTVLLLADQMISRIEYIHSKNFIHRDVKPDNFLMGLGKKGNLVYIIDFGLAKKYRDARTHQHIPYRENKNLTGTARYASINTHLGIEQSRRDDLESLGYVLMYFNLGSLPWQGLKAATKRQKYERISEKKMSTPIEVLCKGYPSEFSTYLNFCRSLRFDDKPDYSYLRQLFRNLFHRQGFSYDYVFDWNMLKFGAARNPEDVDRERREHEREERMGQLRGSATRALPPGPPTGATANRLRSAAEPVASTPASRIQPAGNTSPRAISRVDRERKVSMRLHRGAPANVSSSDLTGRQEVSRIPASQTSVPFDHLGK
# Method in brief: as §1
# CK1δ, sequence (P48730 whole entry): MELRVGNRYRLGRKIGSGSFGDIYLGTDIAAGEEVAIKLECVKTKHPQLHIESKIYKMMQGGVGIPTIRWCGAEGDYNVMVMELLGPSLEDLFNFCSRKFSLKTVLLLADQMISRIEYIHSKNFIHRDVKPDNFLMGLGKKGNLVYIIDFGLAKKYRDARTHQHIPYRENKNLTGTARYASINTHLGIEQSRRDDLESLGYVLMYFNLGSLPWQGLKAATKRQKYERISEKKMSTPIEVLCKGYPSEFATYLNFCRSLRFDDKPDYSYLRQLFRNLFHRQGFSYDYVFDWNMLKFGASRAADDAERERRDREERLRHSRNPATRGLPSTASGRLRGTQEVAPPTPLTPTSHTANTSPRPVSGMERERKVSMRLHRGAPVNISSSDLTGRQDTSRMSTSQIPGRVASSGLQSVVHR
IC50 (CK1δ) [nM],IC50 (CK1ε) [nM],Compound
0.01 to 10,0.01 to 10,"Cc1cc(NC(=O)N2CCn3nc(-c4cccc(F)c4)c(C(N)=O)c3C2)ccc1C#N [Compound A55, N^5-(4-Cyano-3-methylphenyl)-2-(3-fluorophenyl)-6,7-dihydropyrazolo[1,5-a]pyrazine-3,5(4H)-dicarboxamide]"
0.01 to 10,0.01 to 10,"CCOc1cc(Cl)cc(-c2nn3c(c2C(N)=O)CN(C(=O)Nc2ccc(C#N)c(Cl)c2)CC3)c1 [Compound A61, N^5-(3-Chloro-4-cyanophenyl)-2-(3-chloro-5-ethoxyphenyl)-6,7-dihydropyrazolo[1,5-a]pyrazine-3,5(4H)-dicarboxamide]"
0.01 to 10,0.01 to 10,"Cc1cc(Cl)cc(-c2nn3c(c2C(N)=O)CN(C(=O)Nc2ccc(C#N)cc2)CC3)c1 [Compound A62, 2-(3-Chloro-5-methylphenyl)-N^5-(4-cyanophenyl)-6,7-dihydropyrazolo[1,5-a]pyrazine-3,5(4H)-dicarboxamide]"
0.01 to 10,0.01 to 10,"Cc1cc(Cl)cc(-c2nn3c(c2C(N)=O)CN(C(=O)Nc2ccc(C#N)c(Cl)c2)CC3)c1 [Compound A63, N^5-(3-Chloro-4-cyanophenyl)-2-(3-chloro-5-methylphenyl)-6,7-dihydropyrazolo[1,5-a]pyrazine-3,5(4H)-dicarboxamide]"
100 to 2000,100 to 2000,"CNC(=O)c1c(-c2ccc(F)c(Cl)c2)nn2c1CN(C(=O)Nc1ccc(C#N)cc1)CC2 [Compound A64, 2-(3-Chloro-4-fluorophenyl)-N^5-(4-cyanophenyl)-N3-methyl-6,7-dihydropyrazolo[1,5-a]pyrazine-3,5(4H)-dicarboxamide]"
100 to 2000,100 to 2000,"N#Cc1ccc(NC(=O)N2CCn3nc(-c4ccc(F)c(Cl)c4)c(C(=O)NC4CC4)c3C2)cc1 [Compound A65, 2-(3-Chloro-4-fluorophenyl)-N^5-(4-cyanophenyl)-N^3-cyclopropyl-6,7-dihydropyrazolo[1,5-a]pyrazine-3,5(4H)-dicarboxamide]"
0.01 to 10,0.01 to 10,"N#Cc1ccc(NC(=O)N2Cc3c(C(N)=O)c(-c4cccc(Cl)c4)nn3C3(CC3)C2)cc1 [Compound A86, 2′-(3-Chlorophenyl)-N^5′-(4-cyanophenyl)-4′H-spiro[cyclopropane-1,7′-pyrazolo[1,5-a]pyrazine]-3′,5′(6′H)-dicarboxamide]"
0.01 to 10,0.01 to 10,"N#Cc1ccc(NC(=O)N2Cc3c(C(N)=O)c(-c4cccc(F)c4)nn3C3(CC3)C2)cc1 [Compound A87, N^5′-(4-Cyanophenyl)-2′-(3-fluorophenyl)-4′H-spiro[cyclopropane-1,7′-pyrazolo[1,5-a]pyrazine]-3′,5′(6′H)-dicarboxamide]"
0.01 to 10,0.01 to 10,"N#Cc1ccc(NC(=O)N2Cc3c(C(N)=O)c(-c4ccc(F)c(Cl)c4)nn3C3(COC3)C2)cc1 [Compound A88, 2′-(3-Chloro-4-fluorophenyl)-N^5′-(4-cyanophenyl)-4′H-spiro[oxetane-3,7′-pyrazolo[1,5-a]pyrazine]-3′,5′(6′H)-dicarboxamide]"
0.01 to 10,0.01 to 10,"CC(=O)N1CC2(C1)CN(C(=O)Nc1ccc(C#N)cc1)Cc1c(C(N)=O)c(-c3ccc(F)c(Cl)c3)nn12 [Compound A89, 1-Acetyl-2′-(3-chloro-4-fluorophenyl)-N^5′-(4-cyanophenyl)-4′H-spiro[azetidine-3,7′-pyrazolo[1,5-a]pyrazine]-3′,5′(6′H)-dicarboxamide]"
0.01 to 10,0.01 to 10,Cc1cc(NC(=O)N2CCn3nc(-c4cc(F)c5cnn(C)c5c4)c(C(N)=O)c3C2)ccc1C#N [compound 327]

# More lines, now with the values behind:
Compound,IC50 (CK1δ) [nM],IC50 (CK1ε) [nM]
"NC(=O)c1c(-c2cccc(Cl)c2)nn2c1CN(C(=O)Nc1ccc(N3CCCCC3)cc1)C[C@@H]2CF [Compound A11, (R)-2-(3-Chlorophenyl)-7-(fluoromethyl)-N^5-(4-(piperidin-1-yl)phenyl)-6,7-dihydropyrazolo[1,5-a]pyrazine-3,5(4H)-dicarboxamide]",0.01 to 10,0.01 to 10
"CC1CN(C(=O)Nc2ccc(C#N)cc2)Cc2c(C(N)=O)c(-c3cccc(Cl)c3)nn21 (stereo not drawn) [Compound A13, 2-(3-Chlorophenyl)-N^5-(4-cyanophenyl)-7-methyl-6,7-dihydropyrazolo[1,5-a]pyrazine-3,5(4H)-dicarboxamide]",0.01 to 10,0.01 to 10
"N#Cc1ccc(NC(=O)N2Cc3c(C(N)=O)c(-c4ccc(F)c(Cl)c4)nn3[C@H](C(F)F)C2)cc1F [Compound A22, (S)-2-(3-Chloro-4-fluorophenyl)-N^5-(4-cyano-3-fluorophenyl)-7-(difluoromethyl)-6,7-dihydropyrazolo[1,5-a]pyrazine-3,5(4H)-dicarboxamide]",0.01 to 10,0.01 to 10
"N#Cc1ccc(NC(=O)N2Cc3c(C(N)=O)c(-c4ccc(F)c(Cl)c4)nn3C3(C2)CC(F)(F)C3)cc1 [Compound A36, 2′-(3-Chloro-4-fluorophenyl)-N^5′-(4-cyanophenyl)-3,3-difluoro-4′H-spiro[cyclobutane-1,7′-pyrazolo[1,5-a]pyrazine]-3′,5′(6′H)-dicarboxamide]",0.01 to 10,0.01 to 10
"Cc1cc(NC(=O)N2CCn3nc(-c4cccc(Cl)c4)c(C(N)=O)c3C2)ccc1C#N [Compound A38, 2-(3-Chlorophenyl)-N^5-(4-cyano-3-methylphenyl)-6,7-dihydropyrazolo[1,5-a]pyrazine-3,5(4H)-dicarboxamide]",0.01 to 10,0.01 to 10
"N#Cc1ccc(NC(=O)N2CCn3nc(-c4cccc(Cl)c4)c(C(N)=O)c3C2)cc1OC(F)(F)F [Compound A39, 2-(3-Chlorophenyl)-N^5-(4-cyano-3-(trifluoromethoxy)phenyl)-6,7-dihydropyrazolo[1,5-a]pyrazine-3,5(4H)-dicarboxamide]",0.01 to 10,0.01 to 10
"COc1cc(NC(=O)N2CCn3nc(-c4cccc(Cl)c4)c(C(N)=O)c3C2)ccc1C#N [Compound A40, 2-(3-Chlorophenyl)-N^5-(4-cyano-3-methoxyphenyl)-6,7-dihydropyrazolo[1,5-a]pyrazine-3,5(4H)-dicarboxamide]",0.01 to 10,0.01 to 10
"CC(C)(C)c1cc(NC(=O)N2CCn3nc(-c4cccc(Cl)c4)c(C(N)=O)c3C2)ccc1C#N [Compound A42, N^5-(3-(tert-Butyl)-4-cyanophenyl)-2-(3-chlorophenyl)-6,7-dihydropyrazolo[1,5-a]pyrazine-3,5(4H)-dicarboxamide]",0.01 to 10,0.01 to 10
"Cc1nc(-c2ccc(NC(=O)N3CCn4nc(-c5cccc(Cl)c5)c(C(N)=O)c4C3)cc2)cs1 [Compound A46, 2-(3-Chlorophenyl)-N^5-(4-(2-methylthiazol-4-yl)phenyl)-6,7-dihydropyrazolo[1,5-a]pyrazine-3,5(4H)-dicarboxamide]",0.01 to 10,0.01 to 10
"Cc1ncc(-c2ccc(NC(=O)N3CCn4nc(-c5cccc(Cl)c5)c(C(N)=O)c4C3)cc2)o1 [Compound A47, 2-(3-Chlorophenyl)-N^5-(4-(2-methyloxazol-5-yl)phenyl)-6,7-dihydropyrazolo[1,5-a]pyrazine-3,5(4H)-dicarboxamide]",0.01 to 10,0.01 to 10
"Cc1cc(NC(=O)N2CCn3nc(-c4ccc(F)c(Cl)c4)c(C(N)=O)c3C2)ccc1C#N [Compound A48, 2-(3-Chloro-4-fluorophenyl)-N^5-(4-cyano-3-methylphenyl)-6,7-dihydropyrazolo[1,5-a]pyrazine-3,5(4H)-dicarboxamide]",0.01 to 10,0.01 to 10
"N#Cc1ccc(NC(=O)N2CCn3nc(-c4ccc(F)c(Cl)c4)c(C(N)=O)c3C2)cc1N1CCOCC1 [Compound A49, 2-(3-Chloro-4-fluorophenyl)-N^5-(4-cyano-3-morpholinophenyl)-6,7-dihydropyrazolo[1,5-a]pyrazine-3,5(4H)-dicarboxamide]",0.01 to 10,0.01 to 10
"N#Cc1ccc(NC(=O)N2CCn3nc(-c4ccc(F)c(Cl)c4)c(C(N)=O)c3C2)cc1C1CC1 [Compound A50, 2-(3-Chloro-4-fluorophenyl)-N^5-(4-cyano-3-cyclopropylphenyl)-6,7-dihydropyrazolo[1,5-a]pyrazine-3,5(4H)-dicarboxamide]",0.01 to 10,0.01 to 10
"CC(C)(C)c1cc(NC(=O)N2CCn3nc(-c4ccc(F)c(Cl)c4)c(C(N)=O)c3C2)ccc1C#N [Compound A51, N^5-(3-(tert-Butyl)-4-cyanophenyl)-2-(3-chloro-4-fluorophenyl)-6,7-dihydropyrazolo[1,5-a]pyrazine-3,5(4H)-dicarboxamide]",0.01 to 10,0.01 to 10
Cc1n[nH]c2c(Cl)cc(-c3nn4c(c3C(N)=O)CN(C(=O)Nc3ccc(C#N)c(Cl)c3)CC4)cc12 [compound 321],0.01 to 10,0.01 to 10
"N-(tert-Butyl)-2-(3,4-dichlorophenyl)-7-methyl-6,7-dihydropyrazolo[1,5-a]pyrazine-3,5(4H)-dicarboxamide [Compound A32]",0.01 to 10,0.01 to 10
